Reference: PubChem BioAssay (NCI)
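Interpolation was linear, between the two tested concentrations surrounding the appropriate level; five concentrations were tested over 48 hours in 96-well plates. At the GI50, growth is halved. TGI: concentration producing complete growth inhibition.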

Legend:
Test in all cases: DTP human tumour cell line panel, 48 h
[1] = test system: IGROV1 ovarian
[2] = test system: K-562 leukemia
[3] = test system: NCI-H23 lung
[4] = test system: NCI/ADR-RES ovarian
[5] = test system: OVCAR-5 ovarian
[6] = test system: RPMI-8226 leukemia
[7] = test system: SF-539 CNS
[8] = test system: SK-MEL-5 melanoma
[9] = test system: BT-549 breast
[10] = test system: MDA-N

Compound | TGI [1] | TGI [2] | TGI [3] | TGI [4] | TGI [5] | TGI [6] | TGI [7] | TGI [8] | TGI [9] | GI50 [9] | GI50 [1] | GI50 [2] | GI50 [3] | GI50 [4] | GI50 [5] | GI50 [6] | GI50 [7] | GI50 [8] | TGI [10]
CC(=O)Oc1ccc(C2COc3cc(OC(C)=O)c(OC(C)=O)cc3C2)cc1 (configuration not stated) | 31.2 µM | 51.7 µM | 37.7 µM | 48.7 µM | > 97.1 µM | 58.8 µM | 40.2 µM | 6.63 µM | – | – | – | – | – | – | – | – | – | – | –
OC12CC/C(=N/OCc3ccccc3)CC1c1ccccc12 (configuration not stated) | > 100 µM | > 100 µM | > 100 µM | – | > 100 µM | > 100 µM | > 100 µM | > 100 µM | – | – | – | – | – | – | – | – | – | – | –
CC(=Nc1ccncc1)C(C)=Nc1ccncc1 | 35.3 µM | > 100 µM | 32.6 µM | > 100 µM | 31.9 µM | 45 µM | 35.1 µM | 47.1 µM | 42.3 µM | – | – | – | – | – | – | – | – | – | –
CCc1ccc2c(c1)CC1(C2)Cc2cc3c(cc2C1)C(=O)CC3 (configuration not stated) | > 100 µM | 11.9 µM | 96.6 µM | > 100 µM | > 100 µM | 50.7 µM | 61.4 µM | 16.9 µM | – | – | – | – | – | – | – | – | – | – | –
Nc1cc(N2CCCC2)nc(=O)n1Cc1ccccc1 | > 100 µM | > 100 µM | > 100 µM | > 100 µM | > 100 µM | > 100 µM | > 100 µM | > 100 µM | > 100 µM | – | – | – | – | – | – | – | – | – | –
Oc1ccc(CCc2cc(O)cc(O)c2)cc1 | > 100 µM | > 100 µM | > 100 µM | > 100 µM | > 100 µM | > 100 µM | > 100 µM | > 100 µM | > 100 µM | – | – | – | – | – | – | – | – | – | –
COc1cccc(-c2cc(=O)c3ccc(C)nc3[nH]2)c1 | > 95.1 µM | 0.0656 µM | > 100 µM | > 100 µM | > 100 µM | 1.78 µM | 0.921 µM | 2.47 µM | > 39.7 µM | – | – | – | – | – | – | – | – | – | –
c1ccc2c(Cc3nnc4sc(SSc5nn6c(Cc7c[nH]c8ccccc78)nnc6s5)nn34)c[nH]c2c1 | 27.6 µM | 46.5 µM | 34.7 µM | 44.4 µM | 53.1 µM | – | 50.8 µM | 24.2 µM | – | – | – | – | – | – | – | – | – | – | –
COc1cc(S(=O)(=O)Nc2ccc(C3=NNC(c4ccccc4)C3)cc2)ccc1F (configuration not stated) | > 100 µM | > 100 µM | > 100 µM | > 100 µM | > 100 µM | 73.1 µM | > 100 µM | 31.6 µM | > 100 µM | > 100 µM | 93.8 µM | 28.3 µM | 34.6 µM | 36.3 µM | 66.8 µM | 21.6 µM | 40 µM | 13.9 µM | –
C=CC[C@@]1(C(=O)OC)[C@H](Sc2ccccc2)C1(C)C | > 100 µM | – | 97.3 µM | > 100 µM | > 100 µM | 26.4 µM | > 100 µM | 44.3 µM | > 100 µM | – | – | – | – | – | – | – | – | – | –
CC1(Cl)CC2C(CC1Sc1nnnn1-c1ccccc1)C2(C)C (configuration not stated) | > 100 µM | > 100 µM | > 100 µM | – | > 100 µM | > 100 µM | > 100 µM | > 100 µM | – | – | – | – | – | – | – | – | – | – | –
NCCCCNCCCNC(=O)c1nc(-c2csc(CCN)n2)sc1Cl | > 100 µM | > 100 µM | > 100 µM | – | > 100 µM | > 100 µM | > 100 µM | > 100 µM | – | – | – | – | – | – | – | – | – | – | –
CCCCOCn1c(=O)[nH]c(=O)c2cc(Br)ccc21 | > 100 µM | > 100 µM | – | 40.3 µM | > 100 µM | – | > 100 µM | > 100 µM | – | – | – | – | – | – | – | – | – | – | > 100 µM
COc1ccc2c(c1)/c(=C/c1ccc(N(C)C)cc1)c1cc(-c3ccccc3)[n+](C)n12 | 0.543 µM | – | – | > 100 µM | 3.17 µM | – | – | 1.06 µM | – | – | – | 0.0487 µM | – | – | – | 0.0555 µM | – | – | 1.48 µM
COc1cc2c(cc1OC)-c1c3c(cc4c1[C@@H](C2)N(C)CC4)OCO3 | 49.9 µM | 33.9 µM | 26.1 µM | 30.2 µM | 37.3 µM | 22.8 µM | 16.5 µM | 19.3 µM | – | – | – | – | – | – | – | – | – | – | –
CC(=O)OC1[C@H]2c3cc4c(cc3CN3CCC(=C[C@@H]1O)C23)OCO4 (some centres not stated) | > 100 µM | > 100 µM | > 100 µM | – | – | > 100 µM | > 100 µM | – | – | – | – | – | – | – | – | – | – | – | –
CCc1c(C)c(C#N)c(=S)n(C2OC(CO)C(O)C(O)C2O)c1C (configuration not stated) | > 100 µM | > 100 µM | > 100 µM | > 100 µM | > 100 µM | – | > 100 µM | > 100 µM | – | – | – | – | – | – | – | – | – | – | > 100 µM
COc1c2cc(C(C)(C)C)cc1Cc1cccc(c1O)Cc1cc(C(C)(C)C)cc(c1OC)Cc1cccc(c1O)Cc1cc(C(C)(C)C)cc(c1OC)Cc1cccc(c1O)C2 | – | > 100 µM | – | > 100 µM | > 100 µM | > 100 µM | > 100 µM | > 100 µM | – | – | – | – | – | – | – | – | – | – | > 100 µM
O=c1[nH]c(Nc2cccc(Cl)c2)nc2nc[nH]c12 | > 100 µM | > 100 µM | > 100 µM | > 100 µM | > 100 µM | > 100 µM | > 100 µM | > 100 µM | > 100 µM | – | – | – | – | – | – | – | – | – | –
